Assay results taken from article PMC7062083, “Metabolite identification, tissue distribution, excretion and preclinical pharmacokinetic studies of ET-26-HCl, a new analogue of etomidate” (Royal Society Open Science, 2020).
“Also recorded” adds a separate entry of the source.

Legend:
[1] = Excretion (urine, faeces, bile) in Sprague Dawley rats; type: in vivo
Procedure: (§1) Concentrations of ET-26-HCl and ET-26-acid in biological samples were determined by liquid chromatography–tandem mass spectrometry (LC–MS/MS) after deproteinization with methanol. The bioanalytical method for simultaneous quantification of ET-26-HCl and ET-26-acid in the different matrix was fully validated according to FDA guidelines (electronic supplementary material, figure S1 and tables S1 and S2) in our previous study. Briefly, a 100 µl sample (plasma, tissue homogenate, bile, urine and faeces suspension) were spiked with 20 µl of IS solution and vortexed for 30 s. The mixture was then processed for protein precipitation with 300 µl methanol, followed by centrifugation at 12 000 r.p.m. for 5 min. Supernatant was collected and analysed by LC–MS/MS system.
SD rats (4 male and 4 female) received 4.2 mg kg^−1 of ET-26-HCl intravenously and were housed in metabolic cages. Urine and faeces from the treated rats were collected between 0–6, 6–12, 12–24, 24–30, 30–36 and 36–48 h post-dosing. Urine volume and faeces weight were measured and recorded.
Bile fistulas of SD rats (four male and four female) were cannulated with polyethylene tube (Instech Laboratories, Inc., USA) and bile was collected at the following time-points: 0–3, 3–6, 6–9, 9–12 and 12–24 h post-dosing. The volume of the collected bile was measured and stored at −80°C until analysis.

[2] = rats, i.v. ET-26-HCl; cited from earlier work
[3] = Stability in beagle plasma (LC-MS/MS); type: in vitro ADME
Procedure: as §1

[4] = Tissue distribution in Sprague Dawley rats; type: in vivo; conditions: i.v. 4.2 mg kg^−1 ET-26-HCl
Procedure: as §1
Sprague Dawley (SD) rats (200–240 g) were provided by the Animal Facility at Sichuan University (Chengdu, China). All rats received a single 4.2 mg kg^−1 dose of ET-26-HCl intravenously. Rats were sacrificed and tissues, including heart, spleen, lung, intestine, colon, kidney, brain, fat, stomach, liver, muscle, testis and ovary were collected at 0, 1, 3, 6 and 10 h post-dosing (six rats/time-point). Tissue samples were rinsed thrice in ice cold saline, and blotted dry with filter papers. Weighed amount of tissues were homogenized in normal saline (thrice the tissue weight, w/v) and homogenates were stored at −80°C until analysis.

[5] = Pharmacokinetics in beagle dogs after intravenous administration; type: in vivo; conditions: beagle dogs after i.v. ET-26-HCl
Procedure: as §1
The LC–MS/MS was performed as described previously. Briefly, ET-26-HCl, ET-26-acid and GBP were separated using a CAPCELL PAK C18 column (50 × 2.00 mm, 5.00 µm) as well as a Security Guard Cartridge (C18, 4 mm × 3.00 mm i.d., Phenomenex). The mobile phase consisting of 0.3% formic acid water (A), and methanol (B) was pumped at a flow rate of 0.6 ml min^−1. The gradient elution was achieved according to the following protocol: 0 min to about 0.50 min, A/B (41/9, v/v); 0.51 min to about 1.5 min, A/B (1/9, v/v); and 1.51 min to about 2.00 min, A/B ([…], v/v). Mass spectrometry was conducted on an API 3000 mass spectrometer (Sciex, Framingham, MA, USA) equipped with an electrospray ionization (ESI) source operating in positive mode. The MS/MS system was in the multiple reaction monitoring (MRM) mode, using the m/z transitions of 275.6/170.9 for ET-26-HCl, 217.7/113.1 for ET-26-acid and 172.5/154.3 for GBP (IS), respectively. The API 3000 mass parameters were set according to the following protocol: curtain gas, 6 psi; collision gas, 8 psi; nebulizer, 4 psi; ion spray voltage, 3000 V and ion source temperature, 450°C. The autosampler was conditioned at 4°C, and the injection volume was 5 µl. The linear ranges of this analytical method for ET-26-HCl and for ET-26-acid from all biological samples are shown in electronic supplementary material, table S3.
Beagle dogs, weighing 9–11 kg, were purchased from Sichuan Industrial of Antibiotics, China National Pharmaceutical Group Corporation (Chengdu, China). A 3 × 3 crossover experimental design with 24 beagles (equal number of male and female dogs) randomly divided into six groups was conducted. Beagle dogs in the six groups received three doses of ET-26-HCl: 1.045 mg kg^−1, 2.090 mg kg^−1 and 4.180 mg kg^−1 as low (L), medium (M) and high (H) dose. Blood samples (2 ml) were collected from the elbow vein in 4 ml heparinized tubes before dosing, and at 1, 3, 5, 10, 20, 30, 120 and 180 min post-dosing. All blood samples were centrifuged at 8000 r.p.m. for 10 min and plasma collected and stored at −80°C until analysis.
All calculations were performed on Microsoft Excel 2016 (Microsoft Co., USA). The Drug and Statistics 3.2.7 (DAS 3.2.7) software package (Mathematical Pharmacology Professional Committee of China, China) was used to acquire the main pharmacokinetic parameters of ET-26-HCl. All data were shown as mean ± standard deviation (s.d.). Statistical significances were calculated by one-way analysis of variance (ANOVA).

[6] = Identification of major metabolites in liver microsomes (UPLC-Q-TOF-MS); type: in vitro ADME, mouse, rat, beagle dog, monkey and human; conditions: 10 µM ET-26-HCl, 1 mg ml^−1 liver microsomes, NADPH, 1 h
Procedure: The major metabolites of ET-26-HCl in liver microsomes from mouse, rat, beagle dog, monkey and human were determined by the UPLC-Q-TOF-MS system.
Reaction mixture containing 10 µM ET-26-HCl, […] MgCl2 and 1 mg ml^−1 liver microsomes in Tris-HCl phosphate buffer (pH 7.4) was pre-incubated for 6 min at 37°C, followed by the addition of NADPH. After incubation for 1 h, methanol was added to stop the reaction. Samples were centrifuged at 11 000 r.p.m. for 5 min; supernatants were collected and air dried at 40°C. Residues were dissolved in 100 µl acetonitrile/water (1:1, v/v) and analysed by the UPLC-Q-TOF-MS.
The UPLC-Q-OF-MS system was equipped with a Waters Synapt G2-Si quadrupole time-of-flight mass spectrometer (Q-TOF-MS), an ESI source and an ACQUITY UPLC H-CLASS liquid chromatography system. The chromatographic separations were achieved on an ACQUITY UPLC BEH C18 column (2.1 × 100 mm, i.d. 1.7 µm, Waters, USA) kept at 45°C and a flow rate of 0.4 ml min^−1. The mobile phase consisted of 5 mM ammonium acetate with 0.1% formic acid (A) and acetonitrile with 0.1% formic acid (B). The optimized gradient elution programme followed was 0 min to 2.1 min, A/B (19/1, v/v); 2.1 min to 7.3 min, A/B (1/4, v/v); 7.3 min to 8.0 min, A/B (1/9, v/v); and 8.0 min to 10 min, A/B (19/1, v/v). The injection volume was 5 µl. The mass experiment was operated in positive ion modes under the following parameters: turbo spray temperature, 120°C; ion spray voltage, 3.0 kV. Nitrogen was used as the nebulizer and the auxiliary gas; meanwhile, the nebulizer gas was set to 650 l h^−1 and kept at 350°C. The collision energy was set at 5–10 V and the collision energy spread was 4–6 V. TOF-MS was scanned with the mass range of m/z 50–600 with 200 ms accumulation time. A 400 ng ml^−1 leu-enkephalin (m/z 556.2771) was selected as an external standard for mass–charge ratio correction at a flow rate of 5 µl min^−1.

[7] = i.v. ET-26-HCl 4.2 mg kg^−1, collected to 48 h

| SMILES | accumulative excretion through bile ([1]; i.v. ET-26-HCl 4.2 mg kg^−1, bile collected to 24 h) | accumulative excretion through faeces [1, 7] | accumulative excretion through urine [1, 7] | plasma exposure of metabolite relative to parent (in words) [2] | Measured concentration (Mean ± SD) ([3]; 4◦C for 3 h, nominal 38.24 ng/mL) | Measured concentration (Mean ± SD) ([3]; 4◦C for 3 h, nominal 3186 ng/mL) | Measured concentration (Mean ± SD) ([3]; Freeze and Thaw Cycle (3), nominal 38.24 ng/mL) | Measured concentration (Mean ± SD) ([3]; Freeze and Thaw Cycle (3), nominal 3186 ng/mL) | Measured concentration (Mean ± SD) ([3]; Room temperature 3 h, nominal 38.24 ng/mL) | Measured concentration (Mean ± SD) ([3]; Room temperature 3 h, nominal 3186 ng/mL) | Measured concentration (Mean ± SD) ([3]; –80 ◦C for 30 days, nominal 38.24 ng/mL) | Measured concentration (Mean ± SD) ([3]; –80 ◦C for 30 days, nominal 3186 ng/mL) | time for clearance from tissues [4] | tissues with the highest concentration [4] | plasma concentration of ET-26-acid (in words) [5] | source (liver microsomes) in which detected [6] |
| --- | --- | --- | --- | --- | --- | --- | --- | --- | --- | --- | --- | --- | --- | --- | --- | --- |
| C[C@H](c1ccccc1)n1cncc1C(=O)O [ET-26-acid] | 0.027% | 0.080% | 12.49% | higher plasma exposure than the parent drug | 39.92 ± 2.904 ng/mL | 2890 ± 174.8 ng/mL | 36.23 ± 2.568 ng/mL | 2770 ± 157.7 ng/mL | 38.29 ± 4.088 ng/mL | 2890 ± 117.6 ng/mL | 35.84 ± 1.899 ng/mL | 3049 ± 391.4 ng/mL | around 3 h | plasma and liver | almost non-detectable; also recorded: almost undetectable |  |
| C[C@H](c1ccccc1)n1cncc1C(=O)OCCO [M2] |  |  |  |  |  |  |  |  |  |  |  |  |  |  |  | every liver microsomal preparation; also recorded: human, monkey, dog, rat, mouse |
